Laboratory results published in patent EP4813979A1, “COMPOUND FOR EGFR PROTEIN DEGRADATION AND USE THEREOF” (TYK Medicines, Inc., priority 2023, dated 2025).

Legend:
[1] = molecular target: EGFR in Baf3-19del-T790M-C797S (Homo sapiens, UniProt P00533, C797S/DEL746-750/T790M); assay: EGFR PROTAC HTRF experiment (total EGFR degradation); format: cell-based; details: Baf3-DTC, incubated 16 hours, HTRF total EGFR; for DC50: read-out: Baf3-DTC DC50; for Dmax: read-out: Baf3-DTC Dmax
Protocol: (§1) [table] Among them, B[…] -C797S (abbreviated as Baf3-DTC) is a stable Ba/F3 clone expressing exogenous EGFR gene bearing T790M, C797S and […] triple amino acid mutations, purchased from KYinno; Baf3-L858R-T790M - C797S (abbreviated as Baf3-LTC) is a stable Ba/F3 clone expressing exogenous EGFR gene bearing […], T790M, C797S triple mutations, purchased from KYinno. [table] [table] Dilutded Eu and d2 antibodies 2μl per well with detection buffer 20-fold. Then mixed the two antibody vials thoroughly. [table] Opened EnVision , locate the HTRF program, configured the board, and then read […]. The fitted curve, DC50 and Dmax of this compound could be generated using GraphPad Prism .

[2] = molecular target: EGFR in Baf3-L858R-T790M-C797S (Homo sapiens, UniProt P00533, C797S/L858R/T790M); assay: as above; format: cell-based; details: Baf3-LTC, incubated 16 hours, HTRF total EGFR; for DC50: read-out: Baf3-LTC DC50; for Dmax: read-out: Baf3-LTC Dmax
Chain of EGFR in Baf3-L858R-T790M-C797S (P00533 25-1210 T790M/C797S/L858R): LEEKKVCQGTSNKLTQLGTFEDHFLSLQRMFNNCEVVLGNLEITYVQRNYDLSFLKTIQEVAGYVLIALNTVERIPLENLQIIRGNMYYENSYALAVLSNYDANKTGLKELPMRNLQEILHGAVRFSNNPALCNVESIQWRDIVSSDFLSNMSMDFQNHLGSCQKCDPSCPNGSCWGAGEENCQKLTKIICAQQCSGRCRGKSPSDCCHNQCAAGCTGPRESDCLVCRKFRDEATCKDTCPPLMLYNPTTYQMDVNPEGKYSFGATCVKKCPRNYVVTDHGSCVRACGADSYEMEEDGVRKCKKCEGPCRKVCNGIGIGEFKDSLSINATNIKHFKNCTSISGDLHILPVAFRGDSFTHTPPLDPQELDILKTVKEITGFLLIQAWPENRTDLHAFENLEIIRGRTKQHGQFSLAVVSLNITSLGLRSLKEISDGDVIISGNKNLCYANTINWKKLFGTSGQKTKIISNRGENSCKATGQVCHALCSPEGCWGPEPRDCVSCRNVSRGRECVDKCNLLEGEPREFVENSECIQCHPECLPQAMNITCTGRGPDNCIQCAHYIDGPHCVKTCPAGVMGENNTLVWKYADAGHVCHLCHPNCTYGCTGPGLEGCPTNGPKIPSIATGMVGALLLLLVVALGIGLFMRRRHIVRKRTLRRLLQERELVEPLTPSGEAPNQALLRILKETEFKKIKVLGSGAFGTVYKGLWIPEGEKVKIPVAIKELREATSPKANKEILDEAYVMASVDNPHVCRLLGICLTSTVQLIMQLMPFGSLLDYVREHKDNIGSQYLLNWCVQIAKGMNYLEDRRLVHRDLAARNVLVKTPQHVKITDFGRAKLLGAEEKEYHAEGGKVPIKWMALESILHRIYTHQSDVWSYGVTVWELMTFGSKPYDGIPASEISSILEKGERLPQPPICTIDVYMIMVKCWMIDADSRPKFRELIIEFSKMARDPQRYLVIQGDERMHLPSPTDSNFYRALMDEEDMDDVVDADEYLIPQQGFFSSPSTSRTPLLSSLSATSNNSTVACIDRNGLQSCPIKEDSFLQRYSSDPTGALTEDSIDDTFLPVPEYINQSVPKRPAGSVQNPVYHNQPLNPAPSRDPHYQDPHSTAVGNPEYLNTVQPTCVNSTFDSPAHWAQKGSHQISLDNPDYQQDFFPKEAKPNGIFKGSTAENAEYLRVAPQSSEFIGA
Protocol: as §1

[3] = Pharmacokinetic tests in male SD rats; format: in vivo; details: oral gavage (po), 10 mg/kg, plasma; for AUC(0-inf) / AUC(0-t) / Cmax / MRT last / Tmax: rat
Protocol: Three healthy adult male SD rats, 6-8 weeks old, weighing 200-300 grams.
EDTA-Na2 anticoagulant, weighed 11.2 g EDTA-Na2 and placed it in a reagent bottle. Added 100 mL physiological saline and shaked to dissolve completely. After preparation, dispensed into 1.5 mL centrifuge tubes, each containing approximately 20 µL, for whole blood sample collection.
Accurately weighed approximately 10 mg the sample to be tested, added 10% of the converted total volume of DMSO to dissolve it, and then slowly added 90% of the total volume of 0.5% MC solvent while stirring. Sonicated and vortex to mix thoroughly to obtain a solution of the preparation that is considered to be homogeneous, with a concentration of 1 mg/mL. Prepared fresh immediately before use.
Piped 0.2 mL the sample into a 1.5 mL centrifuge tube and store at -80°C for analysis of the concentration of the drug solution.
Animals were housed in rat cages and fasted for at least 10 hours starting the day before the experiment, but water was allowed. On the day of the experiment, each animal was weighed and marked on its tail. Blank blood samples were collected before drug administration. Blood was collected via tail vein.
• Route of administration: Oral gavage (po); • Dosage concentration: 1 mg/ml; • Dosage: 10 mg/kg; • Dosage volume: 10 mL/kg; • Procedure: Hold the rat upright with your left hand wearing a bite-proof glove, insert the gavage needle into the throat through the mouth, and insert the needle when feeling no obvious resistance. Then inject the drug into the stomach.
Whole blood (0.1-0.2 ml) was collected from test animals at 0.5 h, 1 h, 2 h, 4 h, 6 h, 8 h, 12 h, and 24 h after drug administration. The samples were placed in EDTA-Na 2 anticoagulant tubes, inverted 3-4 times to mix, and centrifuged at 4°C, 2000 g for 5 min to separate the supernatant plasma. The plasma was promptly transferred to -80°C for storage until analysis. Blood was collected via tail vein.
A quantitative detection method for the analyte was established using Shimadzu liquid chromatography and Triple Quad™ 6500+AB mass spectrometry. The concentration of the parent drug in plasma was analyzed. The analytical results were controlled for variation using quality control samples, with the accuracy of the quality control samples expected to be between 80% and 120%.
The main pharmacokinetic parameters were calculated using a non-compartmental model in Winnonlin Phoenix software. These parameters included the area under the curve (AUC(0-t) and AUC(0-∞)), elimination half-life (T1/2), maximum plasma concentration (Cmax ), and time to reach maximum plasma concentration (Tmax).The results are shown in Table 3.

PC-9 = assay: Cell anti-proliferation experiment (CTG); format: cell-based; details: Homo sapiens, PC-9, 72 h, PC-9 (EGFR exon 19 deletion), class symbol
Source text: (§2) H1975 has an EGFR: T790M/L858R double mutation, PC-9 has an EGFR exon 19 deletion, and HCC827 has an exon 19 deletion mutation. Baf3-19del- T790M -C797S (Baf3-DTC) is a stable Ba/F3 clone expressing exogenous EGFR gene bearing T790M, C797S, and […] triple amino acid mutations, purchased from KYinno. Baf3-L858R-T790M - C797S (Baf3-LTC) is a stable Ba/F3 clone expressing exogenous EGFR gene bearing […], T790M, and C797S triple mutations, purchased from KYinno. A549 is a wild-type EGFR, purchased from Nanjing Kebai Biotechnology. A431 is a wild-type EGFR, purchased from Shanghai Xinyu Biotechnology. CellCounting-Lite2.0, Trypsin EDTA, 37°C CO2 incubator, cell counter, EnVision Serial No. 1050454.
(§3) • A) Digested logarithmic phase cells with Trypsin EDTA, added culture medium to stop the reaction, and mixing well with a pipette to prepare a cell suspension. • B) Used Vi-cell to determine cell concentration, and prepared a suspension of 15,000-25,000 cells per milliliter according to the experimental purpose and cell characteristics. • C) After prepared the cell suspension, mixed it gently and added 100 µL to each well, so that the cell density to be tested is 1500-2500 per well.
(§4) • A) Weighed approximately 2 mg the compound and calculated the required volume of DMSO according to the formula: Compound mass (mg) * Compound purity (%) / Compound molecular weight * 1000. • B) Placed the inoculated cell culture plate into an incubator and incubated for about 24 hours. Then added compounds of varying concentrations. • C) Diluted the 10mM compound stock solution to […] with culture medium, and added the […] compound solution to the second column of the deep well plate in sequence, and added […] culture medium containing 0.5% DMSO to the third to eleventh columns. • D) Gradient dilution: Taked 125 µL solution from the second column and added it to the third column, mix well; then taked 125 µL solution from the third column and added it to the fourth column, repeated this operation until the tenth column. • E) Used a multichannel pipette, aspirated 25 µL the compound from the deep-well plate and added it to a 96-well culture plate. Repeated this process three times for each compound on the 96-well plate. This will ultimately create a concentration gradient of up to 10,000 nM at a 1:4 ratio on the 96-well plate.
(§5) • A) The effects of the compound were observed under an inverted microscope after the 96-well plate was incubated in an incubator for 72 hours. • B) Added 25 µL CTG solution to each well, placed on a shaker for 10 minutes, and read the […] of each well.
(§6) Calculate the % Cell Viability using the following formula: %Cell Viability = 100% × (Lum_Sample−Lum_LC)/(Lum_HC−Lum_LC) [formula] • Lum_HC: Cell readings from the 0.1% DMSO control group • Lum_Sample: Cell readings with added compound • Lum_LC: Blank culture medium reading
(§7) The IC50 value was obtained by curve fitting using GraphPad Prism 8 software.

A549 = assay: Cell anti-proliferation experiment (CTG); format: cell-based; details: Homo sapiens, A549, 72 h, A549 (wild-type EGFR), class symbol
Source text: as §2, §3, §4, §5, §6, §7

A431 = assay: Cell anti-proliferation experiment (CTG); format: cell-based; details: Homo sapiens, A-431, 72 h, A431 (wild-type EGFR), class symbol
Source text: as §2, §3, §4, §5, §6, §7

[4] = test system: Baf3-19del- T790M -C797S (Baf3-DTC); assay: Cell anti-proliferation experiment (CTG); format: cell-based; details: 72 h, class symbol
Source text: as §2, §3, §4, §5, §6, §7

[5] = test system: Baf3-L858R-T790M - C797S (Baf3-LTC); assay: Cell anti-proliferation experiment (CTG); format: cell-based; details: 72 h, class symbol
Source text: as §2, §3, §4, §5, §6, §7

H1975 = assay: Cell anti-proliferation experiment (CTG); format: cell-based; details: Homo sapiens, NCI-H1975, 72 h, H1975 (EGFR T790M/L858R), class symbol
Source text: as §2, §3, §4, §5, §6, §7

HCC827 = assay: Cell anti-proliferation experiment (CTG); format: cell-based; details: Homo sapiens, HCC827, 72 h, HCC827 (exon 19 deletion), class symbol
Source text: as §2, §3, §4, §5, §6, §7

Chain of EGFR in Baf3-19del-T790M-C797S (P00533 with tags, fused parts or gaps DEL746-750/T790M/C797S): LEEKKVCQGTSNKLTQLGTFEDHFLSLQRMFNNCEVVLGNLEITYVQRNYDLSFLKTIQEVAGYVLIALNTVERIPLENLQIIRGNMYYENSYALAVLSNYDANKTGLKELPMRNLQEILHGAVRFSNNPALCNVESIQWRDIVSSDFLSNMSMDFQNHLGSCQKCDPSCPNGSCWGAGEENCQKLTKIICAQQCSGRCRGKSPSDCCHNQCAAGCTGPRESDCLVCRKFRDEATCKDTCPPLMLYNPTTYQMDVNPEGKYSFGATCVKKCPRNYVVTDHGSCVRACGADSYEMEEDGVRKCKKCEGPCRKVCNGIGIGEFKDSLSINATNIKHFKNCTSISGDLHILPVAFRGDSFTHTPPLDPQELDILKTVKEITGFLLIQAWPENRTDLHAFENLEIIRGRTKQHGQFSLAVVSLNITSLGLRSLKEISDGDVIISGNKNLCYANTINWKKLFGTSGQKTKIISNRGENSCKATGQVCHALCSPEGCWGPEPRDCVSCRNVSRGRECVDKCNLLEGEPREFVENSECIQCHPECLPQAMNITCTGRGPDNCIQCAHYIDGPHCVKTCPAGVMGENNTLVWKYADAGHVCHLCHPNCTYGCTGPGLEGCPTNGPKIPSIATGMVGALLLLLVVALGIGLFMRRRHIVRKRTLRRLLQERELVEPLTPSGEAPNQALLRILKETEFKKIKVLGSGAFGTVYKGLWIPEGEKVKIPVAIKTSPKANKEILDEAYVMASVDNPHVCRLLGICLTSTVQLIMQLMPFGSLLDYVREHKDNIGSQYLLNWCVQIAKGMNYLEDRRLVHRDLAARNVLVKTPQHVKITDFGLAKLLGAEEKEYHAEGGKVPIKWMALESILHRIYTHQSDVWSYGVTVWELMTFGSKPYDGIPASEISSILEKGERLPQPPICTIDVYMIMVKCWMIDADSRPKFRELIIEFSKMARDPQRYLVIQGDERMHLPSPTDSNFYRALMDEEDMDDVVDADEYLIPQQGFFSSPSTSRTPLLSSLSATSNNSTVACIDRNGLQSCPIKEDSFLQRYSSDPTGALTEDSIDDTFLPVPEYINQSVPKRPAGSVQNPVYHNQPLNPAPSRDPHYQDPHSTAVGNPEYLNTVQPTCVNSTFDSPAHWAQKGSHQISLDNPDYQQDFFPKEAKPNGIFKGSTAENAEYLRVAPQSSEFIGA

Question: Which DC50 [1] does the source give for CCc1cc(Nc2ncc(Cl)c(Nc3ccc(Cl)cc3C(C)(C)O)n2)c(OC)cc1N1CCN(C(=O)CN2CCC(c3cc4c(cc3F)c(N3CCC(=O)NC3=O)nn4C)C(F)(F)C2)CC1 (centres unmarked) [TA-009] here?
Answer: 100 to 1000 nM

Question: And the Dmax [1]?
Answer: 70 to 100%

Question: What about the DC50 [2] of the same molecule?
Answer: 100 to 1000 nM

Question: And the Dmax [2]?
Answer: 70 to 100%

Question: What does the source list for CCc1cc(Nc2ncc(Cl)c(Nc3ccc(OC)cc3C(C)=O)n2)c(OC)cc1N1CCN(C(=O)CN2CCC(c3cc4c(cc3F)c(N3CCC(=O)NC3=O)nn4C)C(F)(F)C2)CC1 (centres unmarked) [TA-017]?
Answer: DC50 [1]: 100 to 1000 nM; Dmax [1]: 70 to 100%; DC50 [2]: 100 to 1000 nM; Dmax [2]: 70 to 100%

Question: What does the source list for CCc1cc(Nc2ncc(Cl)c(Nc3ccccc3P(C)(C)=O)n2)c(OC)cc1N1CCN(C(=O)CN2CCC(c3cc4c(cc3F)c(N3CCC(=O)NC3=O)nn4C)C(F)(F)C2)[C@@H](C)C1 (some centres unmarked) [TA-025]?
Answer: DC50 [1]: 10 to 100 nM; Dmax [1]: 70 to 100%; DC50 [2]: 10 to 100 nM; Dmax [2]: 70 to 100%

Question: Which results are given for CCc1cc(Nc2ncc(Cl)c(Nc3ccccc3P(C)(C)=O)n2)c(OC)cc1N1CC2(CCN(C(=O)CN3CCC(c4cc5c(cc4F)c(N4CCC(=O)NC4=O)nn5C)CC3)CC2)C1 [TC-093]?
Answer: HL [3]: 3.43 h; AUC(0-inf) [3]: 4930 ng·h/mL; AUC(0-t) [3]: 5030 ng·h/mL; Cmax [3]: 665 ng/mL; MRT last [3]: 5.98 h; Tmax [3]: 4 h; IC50 (PC-9): 100 to 1000 nM; IC50 (A549): > 1000 nM; IC50 (A431): > 1000 nM; IC50 [4]: 10 to 100 nM; IC50 [5]: 10 to 100 nM; IC50 (H1975): 10 to 100 nM; IC50 (HCC827): 10 to 100 nM

Question: For CCc1cc(Nc2ncc(Br)c(Nc3ccccc3P(C)(C)=O)n2)c(OC)cc1N1CCN(C(=O)Cn2nc(C)c(-c3cc4c(cc3F)c(N3CCC(=O)NC3=O)nn4C)c2C)CC1 [TC-144], which HL [3] is on record?
Answer: 3.21 h

Question: What about the AUC(0-inf) ([3]; in vivo) of the same molecule?
Answer: 4140 ng·h/mL

Question: What about the AUC(0-t) ([3]; in vivo) of the same molecule?
Answer: 4120 ng·h/mL

Question: And the Cmax ([3]; in vivo)?
Answer: 700 ng/mL

Question: And the MRT last ([3]; in vivo)?
Answer: 4.23 h

Question: And the Tmax ([3]; in vivo)?
Answer: 0.67 h

Question: What about the IC50 (PC-9) of the same molecule?
Answer: 100 to 1000 nM

Question: What about the IC50 (A549) of the same molecule?
Answer: 100 to 1000 nM

Question: What about the IC50 (A431) of the same molecule?
Answer: > 1000 nM

Question: What about the IC50 [4] of the same molecule?
Answer: < 10 nM

Question: What about the IC50 [5] of the same molecule?
Answer: < 10 nM

Question: What about the IC50 (H1975) of the same molecule?
Answer: 10 to 100 nM

Question: What about the IC50 (HCC827) of the same molecule?
Answer: 100 to 1000 nM
